# Assay results taken from patent US6787318B1, “Assay for evaluating the therapeutic effectiveness of agents in reducing Alzheimer's disease pathology” (Roskamp Research Institute, LLC, priority 1999, dated 2004).
# “Also recorded” adds a separate entry of the source.
# Experiments:
# IFN-γ = IFN-γ secretion from HAEC, ELISA; format: cell-based, human
# Experimental: (§1) The assay for either IL-1β or IFN-γ was performed in strict accordance with the manufacturer's instructions for the respective assay kits.
# (§2) Activation of CD40 signalling can be achieved by stimulation with either CD40L or certain anti-CD40 mAbs. Since synthetic CD40L is not commercially available, one of the anti-CD40 mAbs (clone 3/23), which has been reported to activate CD40 signalling, was used to mimic the effect of interaction of CD40-CD40L. All Aβ-treated cells were incubated with 1 μg/ml anti-CD40 mAb […]) for four hours followed by CELISA.
# (§3) The resulting cell culture media were assayed for IL-1β or IFN-γ using ELISA. […] The lowest effective concentration was determined to be 100 nM for IFN-γ ([…]). The lowest effective concentration was determined to be 100 nM for IFN-γ (p<0.01) and 1 μM for IL-1β (p<0.01).
# IFN-γR [1] = test: IFN-γR expression in HASM cells, cell-ELISA (CELISA); format: cell-based, human
# Experimental: (§4) In vitro measurement of Aβ-induced changes in expression of the inflammatory cell-surface molecules CD40 and […] in cultured HAEC and HASM cells was performed using a slightly modified ABC-based cell-ELISA (CELISA). […] After PBS washes, 4% neutral formalin solution (Sigma) was used for fixation of the cells. Following quenching of the endogenous peroxidase activity with 3% H2O2 and routine blocking of non-specific binding, the biotinylated specific secondary antibodies against the primary antibodies (goat anti-mouse or anti-rabbit IgG) were applied. The combination of EXTRAVIDIN® Proxidase and the subsequent color reaction was performed strictly according to the manufacturer's instructions in the EXTRAVIDIN® Peroxidase Staining Kit (Sigma). The absorbance of 405 nm was then measured using a microplate reader (SPECTRAmax 250, Molecular Devices). The optical density (O.D.) value for the wells in the absence of the primary antibody for each group was considered as background and subtracted as the blank. In addition, stimulation with IFN-γ for CD40 was included as a positive control in the appropriate plate. Since CD45 is not expressed by endothelial or smooth muscle cells, the assays for expression of CD45 in these Aβ-treated cells were used as negative controls throughout the experiment. In addition, to evaluate the degree of cell death or proliferation in the Aβ-treated, cells, parallel experiments were performed using the MTS (3-(4,5-dimethylthiazol-2-yl)-5-(3-carboxymethoxyphenyl)-2-(4-sulfophenyl)-2H-tetrazolium) cell-proliferation kit (Promega).
# as §2
# CD40 [2] = test: CD40 cell-surface expression on HAEC, flow cytometry; format: cell-based, human; conditions: Aβ 500 nM, IFN-γ 10 U/mL; vs control peptide or Aβ-free
# Experimental: Cultured HAEC were treated as described above. […] Cells were analyzed on a FACScan flow cytometer (Becton-Dickinson, Mountain View, Calif.) using LYSIS-II software. CD40-expressing cells are defined as percentage of CD40-staining cells minus the percentage of IgG1-staining cells.
# CD40 expression between control peptide-treated and Aβ-free AEC was relatively similar.
# HAEC [3] = test: Cytotoxicity in HAEC, LDH release assay; format: cell-based, human; conditions: 500 nM, 48 hours
# Experimental: Previous reports have shown that overexpression of amyloid precursor protein or exogenous addition of Aβ peptides can have cytotoxic effects on cultured endothelial cells.
# In order to determine if ligation of endothelial CD40 could result in production of pro-inflammatory cytokines, IL-1β was measured following treatment with IFN-γ or Aβ peptides. […] There was not observe a significant induction of endothelial cell death by LDH release assay between treatment groups during the time course examined by IL-1β release assay (by One-way ANOVA, F(6,41)=0.322, p=0.921), supporting the hypothesis that stimulation of the CD40 pathway in endothelial cells results in an early pro-inflammatory cascade which later promotes cell injury, rather than induce cytotoxicity acutely.
# CD40 [4] = test: CD40 protein in cultured HAEC, Western immunoblotting; format: cell-based, human; conditions: Aβ 5 μM, IFN-γ 100 U/mL, 48 hours
# Experimental: Cultured HAEC were plated at 1×10^6 cells/well in 100 mm culture dishes (Falcon, Becton Dickinson Inc. New Jersey). […] Cells were washed in ice-cold phosphate buffered saline (PBS) three times and lysed in an ice-cold lysis buffer containing 0.2 mM EDTA, 20 mM Tris/HCl (pH 8.0), 100 mM NaCl, 3% Nonidet P-40, 50 mM NaF, 10 mM sodium pyrophosphate, 2 mM orthovanadate, 10 μg/mL each of aprotinin and leupeptin and 1 mM PMSF. After incubation for thirty minutes on ice, samples were centrifuged at 15,000 rpm for fifteen minutes, and supernatants were collected. Total protein content was estimated using the Bio-Rad protein assay. An aliquot corresponding to 50 μg of total protein of each sample was separated by SDS-PAGE and transferred electrophoretically to Hy-bond PVDF membranes (Bio-Rad, California). Nonspecific antibody binding was blocked overnight at 4° C. with 5% non-fat dry milk in TBS (20 mM Tris, 500 mM NaCl, pH 7.5). […] Blots were also carried out on identical membranes with a reference anti-actin mouse monoclonal antibody (Boehringer Mannhem), which allowed for semi-quantitative CD40 protein determination. Densitometric analysis was performed for protein bands using the Fluor-S™ MultiImager with Quantity One™ software (Bio-Rad, California).
# IL-1β [5] = test: IL-1β secretion from HAEC, ELISA; format: cell-based, human
# Experimental: as §1, §3
# IFN-γR [6] = test: IFN-γR expression in HAEC, cell-ELISA (CELISA) and Western blotting; format: cell-based, human; conditions: for expression of IFN-γR on cytokine treatment: recombinant human cytokine
# Experimental: as §4, §2
# The total protein was estimated using the Bio-Rad protein assay. An aliquot corresponding to 100 μg of total protein of each sample was separated by SDS/PAGE (polyacrylamide gel electrophoresis) and transferred electrophoretically to PVDF filters. Non-specific binding of antibody was blocked with 5% non-fat dry milk, in 20 mM Tris/HCl, pH 7.5/150 mM NaCl/0.1% Triton X-100. Immunoblotting was carried out with the appropriate antibody followed by alkaline phosphatase-conjugated secondary anti-immunoglobulin antibodies. These were then developed by the chemiluminescence method (Bio-Rad).
# CD40 [7] = test: CD40 expression in HAEC, cell-ELISA (CELISA); format: cell-based, human; conditions: for expression of CD40 on cytokine treatment: recombinant human cytokine
# Experimental: as §4
# IL-1β [8] = test: Human IL-1β release ELISA, HAEC with or without CD40 ligation; format: cell-based; conditions: for IL-1β release following CD40 ligation: 48 hour pre-treatment, then CD40L for eight hours; for IL-1β release in the absence of CD40L stimulation: Aβ 500 nM, IFN-γ 10 U/mL, 48 hours
# Experimental: To examine if endothelial CD40 would be functional, cultured HAEC were plated at 5×10^4 cells/well in 6-well tissue culture plates (Nunc-Immuno™ Plate, Denmark) and incubated at 37° C. with human CD40L recombinant protein (CD40L, 0.5 ug/mL, kindly provided by Dr. Jean-Yves Bonnefoy, Glaxo Institute for Molecular Biology, Geneva) in fresh cultured media for eight hours, and cell-free supernatants were collected for IL-1β release assay. The assay for human IL-1β was performed in strict accordance with the manufacturer's instruction using the human Predicta™ IL-1β Kit (Genzyme). Absorbance at 450 nm was measured using a microplate spectrophotometer (SPECTRAmax 250, Molecular Devices, Sunnyvale, Calif.).
# A second group of cells was subjected to these same treatments and incubated with CD40L ([…]) for eight hours following the initial 48 hour treatment period. IL-1β release was then quantified using a human IL-1β ELISA kit as described in materials and methods.
# CD40 [9] = test: CD40 expression in Aβ-treated N9 and N60 microglial cells, flow cytometry; format: cell-based, murine
# Source text: Mononuclear cells from AD patients secrete markedly higher levels of IFN-γ compared to age-matched controls (18).
# CD40 [10] = test: CD40 cell ELISA on cultured HAEC; format: cell-based, human; conditions: Aβ 50 nM to 10,000 nM; IFN-γ 5 to 500 U/mL; 48 hours
# Experimental: To determine if CD40 expression on cultured HAEC was IFN-γ or Aβ dose-dependent, CD40 cell ELISA assays were performed according to published procedures. Briefly, cultured HAEC were plated at 2×10^4 cells/well in flat-bottom, 96-well tissue culture plates (Nunc-Immuno™ Plate, Denmark). […] Other HAEC were treated with a dose range (5 U/mL to 500 U/mL) of IFN-γ. […] Forty-eight hours post-treatment, plates were fixed overnight at 4° C. in 1% paraformaldehyde diluted in 1×PBS, washed three times with wash buffer (0.5% Tween 20 in 1×PBS), and subsequently incubated with […] of blocking buffer (10% fetal bovine serum in wash buffer) for one hour at 37° C. Cells were then treated with purified anti-human CD40 antibody ([…], PharMingen, Los Angeles, Calif.) in […] of blocking buffer for one hour at 37° C. Plates were washed four times with wash buffer. Biotinylated anti-mouse IgG1 (PharMingen, Los Angeles, Calif.; 1:2,000 dilution in blocking buffer, […]) was added and incubated for one hour at 37° C., followed by the addition of […] of a 1:3,000 dilution of HRP-Streptavidin (ZYMED, San Francisco, Calif.) for thirty minutes at 37° C. Plates were washed 4× with wash buffer and developed for twenty minutes at room temperature using the 3, 3′, 5, 5′-tetramethylbenzidine (TMB) one-step substrate system (DAKO, Carpinteria, Calif.) followed by the addition of 100 μL/well of 2N H2SO4 to stop the reaction. Absorbance was measured at 450 nm using a microplate spectrophotometer (SPECTRAmax 250, Molecular Devices, Sunnyvale, Calif.).
# HAEC [11] = test: MTS cell death/proliferation in Aβ-treated HAEC; format: cell-based, human; conditions: 10 or 20 μM
# Experimental: as §4, with “In addition, to evaluate the degree of cell death or proliferation in the Aβ-treated, cells, parallel experiments were performed using the MTS (3-(4,5-dimethylthiazol-2-yl)-5-(3-carboxymethoxyphenyl)-2-(4-sulfophenyl)-2H-tetrazolium) cell-proliferation kit (Promega).” left out
# neurons = conditions: exogenous, at levels similar to those produced by activated microglia; cited from earlier work
# [12] = system: primary cultured cortical neurons; test: Primary cultured microglia-mediated neuronal cell injury (micrographs, 51Cr release, LDH release); format: cell-based, mice; conditions: primary cultured microglia with cortical neurons
# Source text: CD45 positive cells (brown) are microglia, while neurofilament L-staining cells (red) are neurons. […] Results shown are from one of three independent experiments with similar results; FIG. 2E is a graph showing primary cultured microglia-mediated neuronal cell injury as evidenced by ^51Cr release. Data are reported as mean ^51Cr release values±1 SEM and n=9 for each condition presented. […] N=9 for each condition presented.
# Having shown that Aβ peptides activate microglia through the CD40 pathway, it was then investigated whether activation of Aβ-pretreated microglia by ligation of CD40 could mediate neuronal cell injury (23,24).
# TNF-α = TNF-α release from cultured microglia, TNF-α ELISA; format: cell-based, mice; conditions: microglia pre-treated with 500 nM Aβ1-42
# cortical neurons = test: Cortical neurons incubated with treated N9 microglia, photomicrographs; format: cell-based, murine; conditions: Aβ1-42 250 nM, CD40L 0.5 μg/ml
# [13] = increasing concentrations, 24 hours
molecule,measurement,setting,value
"Aβ1-40: amyloid β peptide 1-40, freshly solubilized",IFN-γ production at largest dose,"IFN-γ; 20 μM, vs control",does induce a significant production of IFN-γ
same,"IFN-γ secretion, dose dependence",IFN-γ; [13],does not show a dose-dependent effect
same,IFN-γR expression in HASM cells,IFN-γR [1]; 48 hours,induces a significant effect on IFN-γR
same,IFN-γR expression in HASM cells on CD40 ligation by mAb (3/23),"IFN-γR [1]; Aβ-treated cells, 1 μg/ml mAb, four hours",synergistic
same,"CD40 cell-surface expression, flow cytometry",CD40 [2],significantly induce CD40 expression
same,"cell injury, LDH release",HAEC [3],no significant induction of cell injury
same,"increase in CD40 expression vs control peptide or Aβ-free, Western",CD40 [4],~2 fold
same,IL-1β secretion at largest dose,IL-1β [5]; 20 μM,has no effect
same,"IL-1β secretion, dose dependence",IL-1β [5]; [13],does not show a dose-dependent effect
same,IFN-γR expression in HAEC,IFN-γR [6]; 48 hours,neither Aβ1-40 nor Aβ25-35 modulate the IFN-γR expression
same,"CD40 expression in HAEC, dose dependence",CD40 [7],dose-dependently increase CD40 expression
same,lowest effective concentration for CD40 expression,CD40 [7]; HAEC,10 µM
same,IL-1β release following CD40 ligation,IL-1β [8],synergistic effect
same,IL-1β release in the absence of CD40L stimulation,IL-1β [8],not sufficient to elicit IL-1β
same,CD40 expression on cultured microglial cells,"CD40 [9]; 250 nM freshly solubilized peptide, N9 and N60 cells, vs control peptide or Aβ-free",significantly induce CD40 expression
same,dose dependence of endothelial CD40,CD40 [10],marked increase in endothelial CD40 which is dose-dependent
same,"cell death, MTS assay, HAEC",HAEC [11],significant amount of cell death
IFN-γ: Human IFN-γ recombinant protein (Genzyme),"CD40 cell-surface expression, flow cytometry",CD40 [2],significantly induce CD40 expression
same,"increase in CD40 expression vs control peptide or Aβ-free, Western",CD40 [4],~2.5 fold
same,expression of IFN-γR on cytokine treatment,IFN-γR [6],up-regulate the expression of CD40 and IFN-γR
same,expression of CD40 on cytokine treatment,CD40 [7],up-regulate the expression of CD40 and IFN-γR
same,IL-1β release following CD40 ligation,IL-1β [8],synergistic effect; also recorded: more pronounced than Aβ's effect
same,IL-1β release in the absence of CD40L stimulation,IL-1β [8],not sufficient to elicit IL-1β
same,effect of cytokine on Aβ-dependent CD40 expression,"CD40 [9]; low dose 10 U/mL, Aβ-challenged microglia",synergistically enhances Aβ-dependent CD40 expression
same,dose dependence of endothelial CD40,CD40 [10],dose-dependent induction of endothelial CD40
IL-1β: recombinant human cytokine,expression of IFN-γR on cytokine treatment,IFN-γR [6],up-regulate the expression of CD40 and IFN-γR
same,expression of CD40 on cytokine treatment,CD40 [7],up-regulate the expression of CD40 and IFN-γR
TNF-α,"neuronal injury and death, LDH release",neurons,dose-dependently induces neuronal injury and death
CD40L: human CD40L recombinant protein (protein) ENSFEMQKGDQNPQIAAHVISEASSKTTSVLQWAEKGYYTMSNNLVTLENGKQLTVKRQGLYYIYAQVTFCSNREASSQAPFIASLCLKSPGRFERILLRAANTHSSAKPCGQQSIHLGGVFELQPGASVFVNVTDPSQVSHGTGFTSFGLLKL,neuronal degeneration / injury in micrographs,[12],not detectable
same,TNF-α release on addition of CD40L,TNF-α,synergistically increases TNF-α release
same,IL-1β release,IL-1β [8]; CD40L and Aβ-free condition,approximately 50 pg/mg total protein
same,change in cortical neurons,cortical neurons,no change in cortical neurons
